Source: ChEMBL document CHEMBL3885861, “Open TG-GATES”

Species: Rattus norvegicus
Test: Open TG-GATES - Regimen: Single
Assay type: toxicity, organism-based, Sprague-Dawley
Set-up: regimen Single, gender Male, age 6 weeks
Conditions: in vivo, po, route gavage; for APTT / Bas / Eos / Fbg / Hb / Ht / Lym / MCH / MCHC / MCV / Mono / Neu / PT / Plat / RBC / Ret / WBC: tissue Blood; for KIDNEY_L / KIDNEY_R / KIDNEY_TOTAL: tissue Kidney; for LIVER: tissue Liver; for A/G / ALP / ALT / AST / BUN / CRE / Ca / Cl / DBIL / GLC / IP / K / LDH / Na / PL / RALB / TBIL / TC / TG / TP / gamma-GTP: tissue Plasma
[1] = 0 mg/kg, 3 h, dose level Control
[2] = 0 mg/kg, 6 h, dose level Control
[3] = 0 mg/kg, 9 h, dose level Control
[4] = 0 mg/kg, 24 h, dose level Control

## CCOC(=O)C(C)(C)Oc1ccc(Cl)cc1 [CLOFIBRATE]
[1]
  TERMINAL_BW: 228.9 g
  APTT: 18.8 s
  Bas: 0%
  Eos: 0.8%
  Fbg: 234.6 mg/dL
  Hb: 13.3 g/dL
  Ht: 38.4%
  Lym: 81.8%
  MCH: 21.5 pg
  MCHC: 34.9%
  MCV: 61.6 fL
  Mono: 2.4%
  Neu: 14.4%
  PT: 12.2 s
  Plat: 137.2 x10_4/uL
  RBC: 623.6 x10_4/ul
  Ret: 7.6%
  WBC: 86.9 x10_2/uL
  KIDNEY_L: 0.9 g
  KIDNEY_R: 0.9 g
  KIDNEY_TOTAL: 1.8 g
  LIVER: 10.8 g
  A/G: 1.6
  ALP: 1250.4 IU/L
  ALT: 37.6 IU/L
  AST: 75.6 IU/L
  BUN: 11.6 mg/dL
  CRE: 0.4 mg/dL
  Ca: 11 mg/dL
  Cl: 101.8 meq/L
  DBIL: 0.4 mg/dL
  GLC: 193.4 mg/dL
  IP: 8.4 mg/dL
  K: 3.8 meq/L
  LDH: 218.8 IU/L
  Na: 139 meq/L
  PL: 184 mg/dL
  RALB: 3.6 g/dL
  TBIL: 0.4 mg/dL
  TC: 79.8 mg/dL
  TG: 233.2 mg/dL
  TP: 5.8 g/dL
  gamma-GTP: 1 IU/L
[2]
  TERMINAL_BW: 225.4 g
  APTT: 18.9 s
  Bas: 0%
  Eos: 1%
  Fbg: 229.6 mg/dL
  Hb: 13.7 g/dL
  Ht: 39.7%
  Lym: 76.8%
  MCH: 20.9 pg
  MCHC: 34.5%
  MCV: 60.7 fL
  Mono: 3.4%
  Neu: 18.4%
  PT: 12.5 s
  Plat: 131.5 x10_4/uL
  RBC: 654.6 x10_4/ul
  Ret: 7.7%
  WBC: 91.8 x10_2/uL
  KIDNEY_L: 1 g
  KIDNEY_R: 1 g
  KIDNEY_TOTAL: 2 g
  LIVER: 10 g
  A/G: 1.7
  ALP: 1002.8 IU/L
  ALT: 31.2 IU/L
  AST: 67.2 IU/L
  BUN: 8.6 mg/dL
  CRE: 0.3 mg/dL
  Ca: 10.7 mg/dL
  Cl: 103.2 meq/L
  DBIL: 0.1 mg/dL
  GLC: 192.2 mg/dL
  IP: 8.8 mg/dL
  K: 3.9 meq/L
  LDH: 224 IU/L
  Na: 140.4 meq/L
  PL: 157.6 mg/dL
  RALB: 3.5 g/dL
  TBIL: 0.2 mg/dL
  TC: 76.2 mg/dL
  TG: 86 mg/dL
  TP: 5.7 g/dL
  gamma-GTP: 1 IU/L
[3]
  TERMINAL_BW: 221.7 g
  APTT: 18.1 s
  Bas: 0%
  Eos: 1%
  Fbg: 234.4 mg/dL
  Hb: 13.4 g/dL
  Ht: 38.5%
  Lym: 73.2%
  MCH: 20.8 pg
  MCHC: 34.9%
  MCV: 59.7 fL
  Mono: 2.6%
  Neu: 22.8%
  PT: 13 s
  Plat: 137.3 x10_4/uL
  RBC: 644.4 x10_4/ul
  Ret: 7.1%
  WBC: 78.9 x10_2/uL
  KIDNEY_L: 0.9 g
  KIDNEY_R: 1 g
  KIDNEY_TOTAL: 1.9 g
  LIVER: 9 g
  A/G: 1.6
  ALP: 1006.6 IU/L
  ALT: 27 IU/L
  AST: 63.6 IU/L
  BUN: 11.2 mg/dL
  CRE: 0.4 mg/dL
  Ca: 10.2 mg/dL
  Cl: 103 meq/L
  DBIL: 0.082 mg/dL
  GLC: 204.6 mg/dL
  IP: 10.2 mg/dL
  K: 3.7 meq/L
  LDH: 223.8 IU/L
  Na: 141.2 meq/L
  PL: 136.8 mg/dL
  RALB: 3.3 g/dL
  TBIL: 0.1 mg/dL
  TC: 64.2 mg/dL
  TG: 68.2 mg/dL
  TP: 5.5 g/dL
  gamma-GTP: 0.8 IU/L
[4]
  TERMINAL_BW: 236.7 g
  APTT: 18.6 s
  Bas: 0%
  Eos: 1%
  Fbg: 230.2 mg/dL
  Hb: 13.7 g/dL
  Ht: 39.5%
  Lym: 80.8%
  MCH: 20.7 pg
  MCHC: 34.5%
  MCV: 60 fL
  Mono: 2.4%
  Neu: 15.8%
  PT: 12.5 s
  Plat: 127.3 x10_4/uL
  RBC: 659.8 x10_4/ul
  Ret: 6.3%
  WBC: 75.3 x10_2/uL
  KIDNEY_L: 1 g
  KIDNEY_R: 1 g
  KIDNEY_TOTAL: 2 g
  LIVER: 10.9 g
  A/G: 1.5
  ALP: 1006.2 IU/L
  ALT: 34 IU/L
  AST: 66.4 IU/L
  BUN: 14.4 mg/dL
  CRE: 0.4 mg/dL
  Ca: 10.7 mg/dL
  Cl: 102.2 meq/L
  DBIL: 0.094 mg/dL
  GLC: 191.2 mg/dL
  IP: 7 mg/dL
  K: 3.9 meq/L
  LDH: 198.2 IU/L
  Na: 140 meq/L
  PL: 147.8 mg/dL
  RALB: 3.3 g/dL
  TBIL: 0.2 mg/dL
  TC: 68.4 mg/dL
  TG: 125.4 mg/dL
  TP: 5.5 g/dL
  gamma-GTP: 1 IU/L
30 mg/kg, 3 h, dose level Low
  TERMINAL_BW: 228.4 g
  APTT: 19.1 s
  Bas: 0%
  Eos: 1%
  Fbg: 234.4 mg/dL
  Hb: 13.3 g/dL
  Ht: 38.4%
  Lym: 80.4%
  MCH: 21.8 pg
  MCHC: 34.6%
  MCV: 62.9 fL
  Mono: 2.6%
  Neu: 15.6%
  PT: 12.3 s
  Plat: 121.4 x10_4/uL
  RBC: 611.2 x10_4/ul
  Ret: 7.5%
  WBC: 87.8 x10_2/uL
  KIDNEY_L: 1 g
  KIDNEY_R: 1 g
  KIDNEY_TOTAL: 2 g
  LIVER: 10.5 g
  A/G: 1.6
  ALP: 1038.6 IU/L
  ALT: 38.8 IU/L
  AST: 71 IU/L
  BUN: 12.2 mg/dL
  CRE: 0.3 mg/dL
  Ca: 11.2 mg/dL
  Cl: 102.4 meq/L
  DBIL: 0.4 mg/dL
  GLC: 199.2 mg/dL
  IP: 9 mg/dL
  K: 3.9 meq/L
  LDH: 199.6 IU/L
  Na: 139.6 meq/L
  PL: 178.4 mg/dL
  RALB: 3.4 g/dL
  TBIL: 0.4 mg/dL
  TC: 84 mg/dL
  TG: 194 mg/dL
  TP: 5.6 g/dL
  gamma-GTP: 1.2 IU/L
30 mg/kg, 6 h, dose level Low
  TERMINAL_BW: 224.5 g
  APTT: 18.6 s
  Bas: 0%
  Eos: 1%
  Fbg: 230 mg/dL
  Hb: 13.5 g/dL
  Ht: 38.9%
  Lym: 78.4%
  MCH: 21.7 pg
  MCHC: 34.7%
  MCV: 62.5 fL
  Mono: 2.6%
  Neu: 17.2%
  PT: 12.3 s
  Plat: 125.7 x10_4/uL
  RBC: 623.2 x10_4/ul
  Ret: 7.3%
  WBC: 115.7 x10_2/uL
  KIDNEY_L: 1 g
  KIDNEY_R: 1 g
  KIDNEY_TOTAL: 1.9 g
  LIVER: 9.8 g
  A/G: 1.6
  ALP: 1119.8 IU/L
  ALT: 35.4 IU/L
  AST: 69.2 IU/L
  BUN: 7.8 mg/dL
  CRE: 0.4 mg/dL
  Ca: 10.7 mg/dL
  Cl: 103.8 meq/L
  DBIL: 0.1 mg/dL
  GLC: 194.6 mg/dL
  IP: 9 mg/dL
  K: 4 meq/L
  LDH: 273 IU/L
  Na: 140.8 meq/L
  PL: 143.6 mg/dL
  RALB: 3.5 g/dL
  TBIL: 0.2 mg/dL
  TC: 73 mg/dL
  TG: 88 mg/dL
  TP: 5.7 g/dL
  gamma-GTP: 1.4 IU/L
30 mg/kg, 9 h, dose level Low
  TERMINAL_BW: 223 g
  APTT: 18.8 s
  Bas: 0%
  Eos: 1%
  Fbg: 228.4 mg/dL
  Hb: 13.2 g/dL
  Ht: 37.7%
  Lym: 79.8%
  MCH: 21.5 pg
  MCHC: 34.9%
  MCV: 61.7 fL
  Mono: 3.2%
  Neu: 15.8%
  PT: 12.8 s
  Plat: 137.4 x10_4/uL
  RBC: 611.4 x10_4/ul
  Ret: 7.4%
  WBC: 101.8 x10_2/uL
  KIDNEY_L: 1 g
  KIDNEY_R: 1 g
  KIDNEY_TOTAL: 1.9 g
  LIVER: 9.1 g
  A/G: 1.6
  ALP: 814.2 IU/L
  ALT: 27.6 IU/L
  AST: 61.4 IU/L
  BUN: 11.2 mg/dL
  CRE: 0.4 mg/dL
  Ca: 10.5 mg/dL
  Cl: 101.6 meq/L
  DBIL: 0.076 mg/dL
  GLC: 216 mg/dL
  IP: 11.1 mg/dL
  K: 3.9 meq/L
  LDH: 238.8 IU/L
  Na: 140.2 meq/L
  PL: 127.2 mg/dL
  RALB: 3.4 g/dL
  TBIL: 0.1 mg/dL
  TC: 65.2 mg/dL
  TG: 54.2 mg/dL
  TP: 5.5 g/dL
  gamma-GTP: 1 IU/L
30 mg/kg, 24 h, dose level Low
  TERMINAL_BW: 238.3 g
  APTT: 20.6 s
  Bas: 0%
  Eos: 1%
  Fbg: 215.6 mg/dL
  Hb: 13.5 g/dL
  Ht: 39%
  Lym: 82%
  MCH: 21.8 pg
  MCHC: 34.8%
  MCV: 62.7 fL
  Mono: 2.8%
  Neu: 13.6%
  PT: 12.6 s
  Plat: 123.8 x10_4/uL
  RBC: 620.8 x10_4/ul
  Ret: 6.6%
  WBC: 103.6 x10_2/uL
  KIDNEY_L: 1 g
  KIDNEY_R: 1 g
  KIDNEY_TOTAL: 2 g
  LIVER: 11.1 g
  A/G: 1.7
  ALP: 1108.2 IU/L
  ALT: 34.2 IU/L
  AST: 66.4 IU/L
  BUN: 13.8 mg/dL
  CRE: 0.4 mg/dL
  Ca: 10.8 mg/dL
  Cl: 102.8 meq/L
  DBIL: 0.084 mg/dL
  GLC: 203.8 mg/dL
  IP: 7.1 mg/dL
  K: 3.9 meq/L
  LDH: 243 IU/L
  Na: 140.6 meq/L
  PL: 141 mg/dL
  RALB: 3.4 g/dL
  TBIL: 0.1 mg/dL
  TC: 65 mg/dL
  TG: 110.4 mg/dL
  TP: 5.5 g/dL
  gamma-GTP: 0.6 IU/L
